Measured values reported in the supplement of paper PMC10307832.

Legend:
Assay in all cases: relative viability (nuclei count vs DMSO), 5 days (fraction); higher = more cells survive
Erlotinib + OSI-027 = compound: C#Cc1cccc(Nc2ncnc3cc(OCCOC)c(OCCOC)cc23)c1 [Erlotinib] + COc1cccc2cc(-c3nc([C@H]4CC[C@H](C(=O)O)CC4)n4ncnc(N)c34)[nH]c12 [OSI-027] (partner 0.5 µM)
In short: (§1)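 Lung cancer cell lines, seeded in 1536-well plates, were treated the following day by pin tool with a single drug or with five library-drug doses (not always all listed) in √10 steps on top of a fixed anchor-drug dose. Cells were fixed and nuclei stained in one step after 5 days, and nuclei were counted. Relative viability is the nuclei count for treated wells divided by that for vehicle wells, reported as medians of duplicate plates.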

Erlotinib + Vorinostat = compound: C#Cc1cccc(Nc2ncnc3cc(OCCOC)c(OCCOC)cc23)c1 [Erlotinib] + O=C(CCCCCCC(=O)Nc1ccccc1)NO [Vorinostat] (partner 1 µM)
In short: as §1

AT9283 + Foretinib = compound: O=C(Nc1c[nH]nc1-c1nc2ccc(CN3CCOCC3)cc2[nH]1)NC1CC1 [AT9283] + COc1cc2c(Oc3ccc(NC(=O)C4(C(=O)Nc5ccc(F)cc5)CC4)cc3F)ccnc2cc1OCCCN1CCOCC1 [Foretinib] (partner 0.25 µM)
In short: as §1

AT9283 + Pictilisib = compound: O=C(Nc1c[nH]nc1-c1nc2ccc(CN3CCOCC3)cc2[nH]1)NC1CC1 [AT9283] + CS(=O)(=O)N1CCN(Cc2cc3nc(-c4cccc5[nH]ncc45)nc(N4CCOCC4)c3s2)CC1 [Pictilisib] (partner 1 µM)
In short: as §1

AT9283 + Olaparib = compound: O=C(Nc1c[nH]nc1-c1nc2ccc(CN3CCOCC3)cc2[nH]1)NC1CC1 [AT9283] + O=C(c1cc(Cc2n[nH]c(=O)c3ccccc23)ccc1F)N1CCN(C(=O)C2CC2)CC1 [Olaparib] (partner 8 µM)
In short: as §1

Cell Line | relative viability (Erlotinib + OSI-027; first compound 0.02 µM) | relative viability (Erlotinib + OSI-027; first compound 0.2 µM) | relative viability (Erlotinib + OSI-027; first compound 0.6325 µM) | relative viability (Erlotinib + OSI-027; first compound 2 µM) | relative viability (Erlotinib + Vorinostat; first compound 0.02 µM) | relative viability (Erlotinib + Vorinostat; first compound 0.6325 µM) | relative viability (Erlotinib + Vorinostat; first compound 2 µM) | relative viability (AT9283 + Foretinib; first compound 0.003 µM) | relative viability (AT9283 + Foretinib; first compound 0.03 µM) | relative viability (AT9283 + Foretinib; first compound 0.09487 µM) | relative viability (AT9283 + Foretinib; first compound 0.3 µM) | relative viability (AT9283 + Pictilisib; first compound 0.003 µM) | relative viability (AT9283 + Pictilisib; first compound 0.03 µM) | relative viability (AT9283 + Pictilisib; first compound 0.09487 µM) | relative viability (AT9283 + Pictilisib; first compound 0.3 µM) | relative viability (AT9283 + Olaparib; first compound 0.003 µM) | relative viability (AT9283 + Olaparib; first compound 0.03 µM) | relative viability (AT9283 + Olaparib; first compound 0.09487 µM) | relative viability (AT9283 + Olaparib; first compound 0.3 µM) | relative viability (Erlotinib + Vorinostat; first compound 0.2 µM)
201T | 0.804 | 0.862 | 0.846 | 0.664 | 0.573 | 0.89 | 0.816 | 1.12 | 1.07 | 0.274 | 0.247 | 0.642 | 0.731 | 0.476 | 0.396 | 0.867 | 0.815 | 0.356 | 0.335 | –
A549 | – | – | – | – | – | – | – | 0.87 | 0.118 | 0.131 | 0.0419 | 0.503 | 0.0938 | 0.0787 | 0.0772 | 0.358 | 0.0601 | 0.0514 | 0.069 | –
A-427 | 0.449 | 0.537 | 0.468 | 0.482 | 0.844 | 0.932 | 0.892 | 1.01 | 1.04 | 0.24 | 0.216 | 0.744 | 0.606 | 0.19 | 0.208 | 0.652 | 0.428 | 0.292 | 0.27 | 0.834
ABC-1 | 0.582 | 0.386 | 0.361 | 0.346 | – | 1.34 | 0.985 | 1.02 | 0.15 | 0.178 | 0.153 | 0.76 | 0.269 | 0.232 | 0.256 | 0.853 | 0.324 | 0.551 | 0.417 | 1.13
BEN | 0.334 | 0.301 | 0.317 | 0.304 | 0.66 | 0.637 | 0.547 | 0.47 | 0.65 | 0.185 | 0.19 | 0.501 | 0.555 | 0.188 | 0.224 | 0.969 | 0.747 | 0.481 | 0.298 | 0.523
CAL-12T | 0.672 | 0.47 | 0.219 | 0.26 | 0.763 | 0.359 | 0.313 | 1.1 | 0.773 | 0.414 | 0.283 | 0.354 | 0.297 | 0.23 | 0.31 | 0.734 | 0.536 | 0.307 | 0.222 | 0.54
COR-L23 | 0.87 | 0.879 | 0.721 | 0.512 | 0.583 | 0.489 | 0.362 | 1.01 | 0.623 | 0.216 | 0.182 | 0.83 | 0.132 | 0.107 | 0.123 | 0.331 | 0.156 | 0.115 | 0.137 | 0.423
COR-L 105 | 0.595 | 0.262 | 0.365 | 0.27 | 0.776 | 0.425 | 0.377 | 0.847 | 0.673 | 0.249 | 0.361 | 0.405 | 0.273 | 0.279 | 0.28 | 0.625 | 0.408 | 0.37 | 0.325 | 0.564
